{"source": "paper PMC5218480", "about": "(PLoS ONE, 2017)", "test_system": "MV-4-11 cells", "experiment": "Gene expression microarray analysis (Affymetrix PrimeView) and GSEA", "type": "cell-based, human", "design": "RFU PODN (11730768_x_at) / Fold change /veh PODN (11730768_x_at) / RFU LINC00158 (11744669_a_at) / Fold change /veh LINC00158 (11744669_a_at) / RFU DUSP10 (11751237_a_at) / Fold change /veh DUSP10 (11751237_a_at) / RFU ID3 (11757404_x_at) / Fold change /veh ID3 (11757404_x_at) / RFU PLEKHG5 (11737974_s_at) / Fold change /veh PLEKHG5 (11737974_s_at) / RFU LRRC4B (11730491_at) / Fold change /veh LRRC4B (11730491_at) / RFU GIMAP4 (11747438_a_at) / Fold change /veh GIMAP4 (11747438_a_at) / RFU KRT8 (11758183_x_at) / Fold change /veh KRT8 (11758183_x_at) / RFU CNN1 (11734310_a_at) / Fold change /veh CNN1 (11734310_a_at) / RFU VPS37D (11726825_at) / Fold change /veh VPS37D (11726825_at) / RFU C10orf10 (11716522_x_at) / Fold change /veh C10orf10 (11716522_x_at) / RFU KIR2DL2 /// KIR2DL4 /// KIR2DL5A /// KIR2DL5B /// KIR2DS1 /// KIR2DS2 /// KIR2DS3 /// KIR2DS4 /// KIR3DL3 /// KIR3DL3 /// KIR3DS1 (11738374_at) / Fold change /veh KIR2DL2 /// KIR2DL4 /// KIR2DL5A /// KIR2DL5B /// KIR2DS1 /// KIR2DS2 /// KIR2DS3 /// KIR2DS4 /// KIR3DL3 /// KIR3DL3 /// KIR3DS1 (11738374_at) / RFU C1QL1 (11718748_at) / Fold change /veh C1QL1 (11718748_at) / RFU TMPRSS4 (11747572_a_at) / Fold change /veh TMPRSS4 (11747572_a_at) / RFU HAMP (11756126_x_at) / Fold change /veh HAMP (11756126_x_at) / RFU RNFT2 (11725882_a_at) / Fold change /veh RNFT2 (11725882_a_at) / RFU NR4A2 (11747474_a_at) / Fold change /veh NR4A2 (11747474_a_at) / RFU ABCC12 (11746883_a_at) / Fold change /veh ABCC12 (11746883_a_at) / RFU TMEM136 (11760407_x_at) / Fold change /veh TMEM136 (11760407_x_at) / RFU CLDN22 /// WWC2 (11732394_at) / Fold change /veh CLDN22 /// WWC2 (11732394_at) / RFU HLA-DPB1 (11760878_x_at) / Fold change /veh HLA-DPB1 (11760878_x_at) / RFU SPINT1 (11716480_a_at) / Fold change /veh SPINT1 (11716480_a_at) / RFU GAP43 (11754022_s_at) / Fold change /veh GAP43 (11754022_s_at) / RFU A4GNT (11735810_at) / Fold change /veh A4GNT (11735810_at) / RFU PRB3 (11715151_x_at) / Fold change /veh PRB3 (11715151_x_at) / RFU TUBB4B (11761932_at) / Fold change /veh TUBB4B (11761932_at) / RFU CAPN14 (11732068_a_at) / Fold change /veh CAPN14 (11732068_a_at) / RFU TMCC2 (11721928_a_at) / Fold change /veh TMCC2 (11721928_a_at) / RFU IRGQ (11745062_a_at) / Fold change /veh IRGQ (11745062_a_at) / RFU FAM174B (11720279_a_at) / Fold change /veh FAM174B (11720279_a_at) / RFU TMPRSS4 (11748680_a_at) / Fold change /veh TMPRSS4 (11748680_a_at) / RFU FAM212B (11763350_a_at) / Fold change /veh FAM212B (11763350_a_at) / RFU PLEKHG5 (11743358_a_at) / Fold change /veh PLEKHG5 (11743358_a_at) / RFU ZSCAN30 (11745921_a_at) / Fold change /veh ZSCAN30 (11745921_a_at) / RFU CMKLR1 (11741424_a_at) / Fold change /veh CMKLR1 (11741424_a_at) / RFU LOC101060620 /// MAPK8IP1 (11723275_at) / Fold change /veh LOC101060620 /// MAPK8IP1 (11723275_at) / RFU SPTSSB (11747773_x_at) / Fold change /veh SPTSSB (11747773_x_at) / RFU PRSS12 (11739890_at) / Fold change /veh PRSS12 (11739890_at) / RFU BIN1 (11741810_x_at) / Fold change /veh BIN1 (11741810_x_at) / RFU WNT11 (11732464_a_at) / Fold change /veh WNT11 (11732464_a_at) / RFU C10orf10 (11716521_a_at) / Fold change /veh C10orf10 (11716521_a_at) / RFU C5orf56 (11738089_at) / Fold change /veh C5orf56 (11738089_at) / RFU CYB561 (11721691_x_at) / Fold change /veh CYB561 (11721691_x_at) / RFU ANKRD19P (11752326_a_at) / Fold change /veh ANKRD19P (11752326_a_at) / RFU OR2T12 /// OR2T33 /// OR2T8 (11738714_s_at) / Fold change /veh OR2T12 /// OR2T33 /// OR2T8 (11738714_s_at) / RFU VCAN (11748164_a_at) / Fold change /veh VCAN (11748164_a_at) / RFU JSRP1 (11732532_at) / Fold change /veh JSRP1 (11732532_at) / RFU KRTAP10-11 (11738290_x_at) / Fold change /veh KRTAP10-11 (11738290_x_at) / RFU MYO3A (11730013_a_at) / Fold change /veh MYO3A (11730013_a_at) / RFU EBF3 (11725865_a_at) / Fold change /veh EBF3 (11725865_a_at) / RFU CAMK2N1 (11719241_x_at) / Fold change /veh CAMK2N1 (11719241_x_at) / RFU C5orf56 (11738088_a_at) / Fold change /veh C5orf56 (11738088_a_at) / RFU OLFML3 (11715873_a_at) / Fold change /veh OLFML3 (11715873_a_at) / RFU LOC100653217 /// NTM (11731650_a_at) / Fold change /veh LOC100653217 /// NTM (11731650_a_at) / RFU MAPK11 (11762145_a_at) / Fold change /veh MAPK11 (11762145_a_at) / RFU FIZ1 (11724087_x_at) / Fold change /veh FIZ1 (11724087_x_at) / RFU OASL (11726364_x_at) / Fold change /veh OASL (11726364_x_at) / RFU SOX15 (11748057_x_at) / Fold change /veh SOX15 (11748057_x_at) / RFU CD79A (11719716_a_at) / Fold change /veh CD79A (11719716_a_at) / RFU HIST1H1D (11736915_at) / Fold change /veh HIST1H1D (11736915_at) / RFU CASKIN2 (11723855_a_at) / Fold change /veh CASKIN2 (11723855_a_at) / RFU LOC730098 (11760151_x_at) / Fold change /veh LOC730098 (11760151_x_at) / RFU OR4N2 (11742367_at) / Fold change /veh OR4N2 (11742367_at) / RFU PRRT2 (11749266_a_at) / Fold change /veh PRRT2 (11749266_a_at) / RFU SNX32 (11753110_a_at) / Fold change /veh SNX32 (11753110_a_at) / RFU CDHR5 (11726645_a_at) / Fold change /veh CDHR5 (11726645_a_at) / RFU RCAN1 (11760418_a_at) / Fold change /veh RCAN1 (11760418_a_at) / RFU FAM167A (11723789_a_at) / Fold change /veh FAM167A (11723789_a_at) / RFU FAM26E (11764081_at) / Fold change /veh FAM26E (11764081_at) / RFU ISYNA1 (11749810_s_at) / Fold change /veh ISYNA1 (11749810_s_at) / RFU ACY1 (11761880_at) / Fold change /veh ACY1 (11761880_at) / RFU 11764098_at / Fold change /veh 11764098_at / RFU SAMD14 (11745864_x_at) / Fold change /veh SAMD14 (11745864_x_at) / RFU NPB (11741838_a_at) / Fold change /veh NPB (11741838_a_at) / RFU TMPRSS6 (11731388_a_at) / Fold change /veh TMPRSS6 (11731388_a_at) / RFU KRTAP10-2 (11738614_at) / Fold change /veh KRTAP10-2 (11738614_at) / RFU ARHGAP8 /// PRR5-ARHGAP8 (11727945_x_at) / Fold change /veh ARHGAP8 /// PRR5-ARHGAP8 (11727945_x_at) / RFU KRTAP5-7 /// NADSYN1 (11734609_at) / Fold change /veh KRTAP5-7 /// NADSYN1 (11734609_at) / RFU RASL12 (11751679_a_at) / Fold change /veh RASL12 (11751679_a_at) / RFU CDKN2B (11736163_a_at) / Fold change /veh CDKN2B (11736163_a_at) / RFU PRF1 (11729649_at) / Fold change /veh PRF1 (11729649_at) / RFU, ZNF638 /// ZNF638-IT1 / Fold change vs veh, ZNF638 /// ZNF638-IT1 / RFU, PANK3 / Fold change vs veh, PANK3 / RFU, SH3YL1 / Fold change vs veh, SH3YL1 / RFU, ZEB2 / Fold change vs veh, ZEB2 / RFU, NRIP1 / Fold change vs veh, NRIP1 / RFU, PTTG1IP / Fold change vs veh, PTTG1IP / RFU, CAPN2 / Fold change vs veh, CAPN2 / RFU, MED14 / Fold change vs veh, MED14 / RFU, SNORA58 / Fold change vs veh, SNORA58 / RFU, C1orf63 / Fold change vs veh, C1orf63 / RFU, LRRFIP1 / Fold change vs veh, LRRFIP1 / RFU, NDUFAF7 / Fold change vs veh, NDUFAF7 / RFU, SLC12A2 / Fold change vs veh, SLC12A2 / RFU, IBTK / Fold change vs veh, IBTK / RFU, ESF1 / Fold change vs veh, ESF1 / Fold change vs veh, TMEM50B / RFU, TAOK1 / Fold change vs veh, TAOK1 / RFU, ACBD3 / Fold change vs veh, ACBD3 / RFU, TMA16 / Fold change vs veh, TMA16 / RFU, RWDD3 / Fold change vs veh, RWDD3 / RFU, BCAT1 / Fold change vs veh, BCAT1 / RFU, EDEM3 / Fold change vs veh, EDEM3 / RFU, TMEM33 / Fold change vs veh, TMEM33 / RFU, WDR75 / Fold change vs veh, WDR75 / RFU, AHCTF1 / Fold change vs veh, AHCTF1 / RFU, TFRC / Fold change vs veh, TFRC / RFU, ZDHHC17 / Fold change vs veh, ZDHHC17 / RFU, NOM1 / Fold change vs veh, NOM1 / RFU, ARL8B / Fold change vs veh, ARL8B / RFU, ZBTB11 / Fold change vs veh, ZBTB11 / RFU, TAMM41 / Fold change vs veh, TAMM41 / RFU, KIAA1704 /// LOC100996395 / Fold change vs veh, KIAA1704 /// LOC100996395 / RFU, ING1 / Fold change vs veh, ING1 / RFU, TRMT61B / Fold change vs veh, TRMT61B / RFU, FUBP3 / Fold change vs veh, FUBP3 / RFU, TP53 / Fold change vs veh, TP53 / RFU, TNKS2 / Fold change vs veh, TNKS2 / RFU, ZFP14 / Fold change vs veh, ZFP14 / RFU, ACTR2 / Fold change vs veh, ACTR2 / RFU, PPP3R1 / Fold change vs veh, PPP3R1 / RFU, PIK3R1 / Fold change vs veh, PIK3R1 / RFU, HNRNPA1 / Fold change vs veh, HNRNPA1 / RFU, RNF170 / Fold change vs veh, RNF170 / RFU, ZNF28 / Fold change vs veh, ZNF28 / RFU, RNGTT / Fold change vs veh, RNGTT / RFU, OGT / Fold change vs veh, OGT / RFU, BRD1 / Fold change vs veh, BRD1 / RFU, MARS / Fold change vs veh, MARS / RFU, ZNF655 / Fold change vs veh, ZNF655 / RFU, FAHD1 / Fold change vs veh, FAHD1 / RFU, BDP1 / Fold change vs veh, BDP1 / RFU, LRRCC1 / Fold change vs veh, LRRCC1 / RFU, ARID1A / Fold change vs veh, ARID1A / RFU, ZNF146 / Fold change vs veh, ZNF146 / RFU, ZNF330 / Fold change vs veh, ZNF330 / RFU, GPN3 / Fold change vs veh, GPN3 / RFU, C9orf123 / Fold change vs veh, C9orf123 / RFU, N4BP2L2 / Fold change vs veh, N4BP2L2 / RFU, ARFIP1 / Fold change vs veh, ARFIP1 / RFU, FAM179B / Fold change vs veh, FAM179B / RFU, BCL10 / Fold change vs veh, BCL10 / RFU, UHRF1BP1L / Fold change vs veh, UHRF1BP1L / RFU, BET1 / Fold change vs veh, BET1 / RFU, CNOT2 / Fold change vs veh, CNOT2 / RFU, ZNF268 / Fold change vs veh, ZNF268 / Fold change vs veh, ZNF507 / RFU, DGCR2 / Fold change vs veh, DGCR2 / RFU, WDSUB1 / Fold change vs veh, WDSUB1 / Fold change vs veh, HSP90B1 /// MIR3652 / RFU, ADSS / Fold change vs veh, ADSS / RFU, GK / Fold change vs veh, GK / RFU, ZNF148 / Fold change vs veh, ZNF148 / RFU, TAF9 / Fold change vs veh, TAF9 / RFU, SLC1A5 / Fold change vs veh, SLC1A5 / RFU, SLMO2 / Fold change vs veh, SLMO2 / RFU, ABCC4 / Fold change vs veh, ABCC4 / RFU, LOC101060439 /// RAP1B / Fold change vs veh, LOC101060439 /// RAP1B / RFU, RFX7 / Fold change vs veh, RFX7 / RFU, GTPBP10 / Fold change vs veh, GTPBP10 / RFU, CNEP1R1 / Fold change vs veh, CNEP1R1 / RFU, BIVM-ERCC5 /// ERCC5 / Fold change vs veh, BIVM-ERCC5 /// ERCC5 / RFU, ILF3 / Fold change vs veh, ILF3 / RFU 11762660_at / Fold change /veh 11762660_at / RFU VCAN (11757783_s_at) / Fold change /veh VCAN (11757783_s_at) / RFU DDX43 (11728927_at) / Fold change /veh DDX43 (11728927_at) / RFU KRT8 (11758188_x_at) / Fold change /veh KRT8 (11758188_x_at) / RFU NKD1 (11759106_at) / Fold change /veh NKD1 (11759106_at) / RFU SRD5A1 (11742802_a_at) / Fold change /veh SRD5A1 (11742802_a_at) / RFU TPSAB1 /// TPSB2 (11721975_s_at) / Fold change /veh TPSAB1 /// TPSB2 (11721975_s_at) / RFU GSTM3 (11746129_a_at) / Fold change /veh GSTM3 (11746129_a_at) / RFU IL23R (11737362_x_at) / Fold change /veh IL23R (11737362_x_at) / RFU TMEM51 (11727254_a_at) / Fold change /veh TMEM51 (11727254_a_at) / RFU PIWIL2 (11732686_x_at) / Fold change /veh PIWIL2 (11732686_x_at) / RFU ORM1 (11744905_x_at) / Fold change /veh ORM1 (11744905_x_at) / RFU CCDC152 (11743942_at) / Fold change /veh CCDC152 (11743942_at) / RFU ECM1 (11717891_a_at) / Fold change /veh ECM1 (11717891_a_at) / RFU IL23R (11748794_a_at) / Fold change /veh IL23R (11748794_a_at) / RFU TNFAIP8L3 (11732012_x_at) / Fold change /veh TNFAIP8L3 (11732012_x_at) / RFU MBOAT4 (11741988_at) / Fold change /veh MBOAT4 (11741988_at) / RFU 11764193_at / Fold change /veh 11764193_at / RFU TMEM53 (11763286_at) / Fold change /veh TMEM53 (11763286_at) / RFU MAGEB2 (11727129_at) / Fold change /veh MAGEB2 (11727129_at) / RFU TMEM200A (11744735_a_at) / Fold change /veh TMEM200A (11744735_a_at) / RFU CCDC152 (11751479_a_at) / Fold change /veh CCDC152 (11751479_a_at) / RFU FAM211A (11726209_a_at) / Fold change /veh FAM211A (11726209_a_at) / RFU RGS16 (11746705_a_at) / Fold change /veh RGS16 (11746705_a_at) / RFU VCAN (11755009_s_at) / Fold change /veh VCAN (11755009_s_at) / RFU RHOB (11743442_s_at) / Fold change /veh RHOB (11743442_s_at) / RFU RGS16 (11720943_a_at) / Fold change /veh RGS16 (11720943_a_at) / RFU RGS16 (11720944_at) / Fold change /veh RGS16 (11720944_at) / RFU, VPS4B / Fold change vs veh, VPS4B / RFU, CREB1 / Fold change vs veh, CREB1 / RFU, DNAJC13 / Fold change vs veh, DNAJC13 / RFU, GNAQ / Fold change vs veh, GNAQ / RFU, CDK5R1 / Fold change vs veh, CDK5R1 / RFU, ZRANB3 / Fold change vs veh, ZRANB3 / RFU, CUL4A / Fold change vs veh, CUL4A / RFU, CCNY / Fold change vs veh, CCNY / RFU, UFL1 / Fold change vs veh, UFL1 / RFU, COG3 / Fold change vs veh, COG3 / RFU, DIAPH2 / Fold change vs veh, DIAPH2 / RFU, SKA2 / Fold change vs veh, SKA2 / RFU, AFF3 / Fold change vs veh, AFF3 / RFU, LMF1 / Fold change vs veh, LMF1 / RFU, IPO11 / Fold change vs veh, IPO11 / RFU, DFFB / Fold change vs veh, DFFB / RFU, FOXP1 / Fold change vs veh, FOXP1 / RFU, CARD8 / Fold change vs veh, CARD8 / RFU, STRN3 / Fold change vs veh, STRN3 / RFU, ADK / Fold change vs veh, ADK / RFU, RASSF2 / Fold change vs veh, RASSF2 / RFU, WIPF1 / Fold change vs veh, WIPF1 / RFU, LARP1B / Fold change vs veh, LARP1B / RFU, RASA1 / Fold change vs veh, RASA1 / RFU, RB1 / Fold change vs veh, RB1 / RFU, PPFIA1 / Fold change vs veh, PPFIA1 / RFU, MAT2A / Fold change vs veh, MAT2A / RFU, CCT5 / Fold change vs veh, CCT5 / RFU, WDR92 / Fold change vs veh, WDR92 / RFU, CUX1 / Fold change vs veh, CUX1 / RFU, TTC7A / Fold change vs veh, TTC7A / RFU, TMEM135 / Fold change vs veh, TMEM135 / RFU, DEPTOR / Fold change vs veh, DEPTOR / RFU, CPM / Fold change vs veh, CPM / RFU, DNAJB6 / Fold change vs veh, DNAJB6 / RFU, CACNA2D3 / Fold change vs veh, CACNA2D3 / RFU, DTX4 / Fold change vs veh, DTX4 / RFU, TFCP2 / Fold change vs veh, TFCP2 / RFU, GMCL1 /// GMCL1P1 / Fold change vs veh, GMCL1 /// GMCL1P1 / RFU, AEBP2 / Fold change vs veh, AEBP2 / RFU, SNHG1 /// SNORD22 /// SNORD25 /// SNORD26 /// SNORD27 /// SNORD28 /// SNORD29 /// SNORD31 / Fold change vs veh, SNHG1 /// SNORD22 /// SNORD25 /// SNORD26 /// SNORD27 /// SNORD28 /// SNORD29 /// SNORD31 / Fold change (Aza/veh), C12orf56 (ProbeSet 11735607_a_at) / Fold change (ACY-1035/veh), C12orf56 (ProbeSet 11735607_a_at) / Fold change (Aza/veh), FGFR1OP (ProbeSet 11751329_s_at) / Fold change (ACY-1035/veh), FGFR1OP (ProbeSet 11751329_s_at) / Fold change (Aza/veh), VPS36 (ProbeSet 11739960_a_at) / Fold change (ACY-1035/veh), VPS36 (ProbeSet 11739960_a_at) / RFU SYPL1 (11715823_x_at) / Fold change /veh SYPL1 (11715823_x_at) / RFU IGFBP7 (11715501_s_at) / Fold change /veh IGFBP7 (11715501_s_at) / RFU REEP3 (11722064_at) / Fold change /veh REEP3 (11722064_at) / RFU IGLL1 (11728026_x_at) / Fold change /veh IGLL1 (11728026_x_at): dose or concentration left out as unconfirmed", "settings": "MV-4-11 cells, 48 hours", "data": [{"smiles": "Nc1ncn([C@@H]2O[C@H](CO)[C@@H](O)[C@H]2O)c(=O)n1", "note": "[azacitidine]", "values": [{"measurement": "RFU IL23R (11737362_x_at)", "result": 11.80, "unit": "RFU"}]}]}
